In US20220378801A1, “NOVEL COMPOUNDS” (AC Immune SA, priority 2019, published 2022):

Tests used:
Format in all cases: cell-based
NLRP3 inflammasome [1] = molecular target: T1, NLRP3 inflammasome (Homo sapiens, UniProt Q96P20); test: NLRP3 inflammasome activation assay, IL-1 beta release, HMDM cells, Nigericin stimulation; conditions: LPS-primed primary human monocyte-derived macrophages; Nigericin 2.5 μM 3 h; IL-1β by AlphaLISA
Procedure: (§1) The following assays can be used to determine the inhibitory activity of test compounds on the NLRP3 inflammasome using common stimuli nigericin (Invivogen) or monosodium urate crystals (MSU)(Invivogen).
(§2) Human monocyte-like cells are cultured in RPM11640 Glutamax medium supplemented with 10% heat inactivated FCS and 50 U/ml penicillin-streptomycin (Life Technologies). HMDM (Human Monocyte Derived Macrophage) are isolated from human blood with leucosep tubes and classical monocyte isolation kit from Miltenyi based on negative selection.
(§3) Primary human monocyte-derived macrophages (HMDM) are seeded at 30000 per well in a 96 well plate and differentiated into macrophages with 10 ng/ml Human M-CSF (Macrophage Colony Stimulating Factor). At DIV 8 (Day in vitro) medium containing 10 ng/ml LPS is added. After 3 h of LPS priming, concentrations of test compound in the range from […] are added 30 min prior to NLRP3 inflammasome stimulation with Nigericin 2.5 μM or MSU 150 μg/ml for 3 h.
(§4) For IL-1β quantification, supernatants are analyzed using AlphaLISA kits according to the manufacturer's instructions (Perkin Elmer AlphaLISA AL220F).
(§5) IC50 (concentration corresponding to 50% inhibition) were determined using GraphPad Prism 8.

NLRP3 inflammasome [2] = molecular target: T1, NLRP3 inflammasome; test: NLRP3 inflammasome activation assay, IL-1 beta release, human monocyte-like cells, MSU stimulation; parameters: endogenous in cells; conditions: PMA-differentiated, LPS-primed human monocyte-like cells; MSU 150 μg/ml 3 h; IL-1β by AlphaLISA
Procedure: as §1, §2
(§6) NLRP3 inflammasome activation assays Human monocyte-like cells are seeded at 75000 per well in a 96 well plate and differentiated overnight into macrophages with 10 ng/ml PMA (Phorbol Myristate Acetate). The following day, medium containing 10 ng/ml LPS (lipopolysaccharide) is added. After 3 h of LPS priming, concentrations of test compound in the range from 100 μM to 6 nM are added 30 min prior to NLRP3 inflammasome stimulation with Nigericin 3.75 μM or MSU 150 μg/ml for 3 h.
as §4, §5

NLRP3 inflammasome [3] = molecular target: T1, NLRP3 inflammasome; test: NLRP3 inflammasome activation assay, IL-1 beta release, HMDM cells, MSU stimulation; conditions: LPS-primed primary human monocyte-derived macrophages; MSU 150 μg/ml 3 h; IL-1β by AlphaLISA
Procedure: as §1, §2, §3, §4, §5

NLRP3 inflammasome [4] = molecular target: T1, NLRP3 inflammasome; test: NLRP3 inflammasome activation assay, IL-1 beta release, human monocyte-like cells, Nigericin stimulation; parameters: endogenous in cells; conditions: PMA-differentiated, LPS-primed human monocyte-like cells; Nigericin 3.75 μM 3 h; IL-1β by AlphaLISA
Procedure: as §1, §2, §6, §4, §5

T1 sequence (Q96P20 whole entry): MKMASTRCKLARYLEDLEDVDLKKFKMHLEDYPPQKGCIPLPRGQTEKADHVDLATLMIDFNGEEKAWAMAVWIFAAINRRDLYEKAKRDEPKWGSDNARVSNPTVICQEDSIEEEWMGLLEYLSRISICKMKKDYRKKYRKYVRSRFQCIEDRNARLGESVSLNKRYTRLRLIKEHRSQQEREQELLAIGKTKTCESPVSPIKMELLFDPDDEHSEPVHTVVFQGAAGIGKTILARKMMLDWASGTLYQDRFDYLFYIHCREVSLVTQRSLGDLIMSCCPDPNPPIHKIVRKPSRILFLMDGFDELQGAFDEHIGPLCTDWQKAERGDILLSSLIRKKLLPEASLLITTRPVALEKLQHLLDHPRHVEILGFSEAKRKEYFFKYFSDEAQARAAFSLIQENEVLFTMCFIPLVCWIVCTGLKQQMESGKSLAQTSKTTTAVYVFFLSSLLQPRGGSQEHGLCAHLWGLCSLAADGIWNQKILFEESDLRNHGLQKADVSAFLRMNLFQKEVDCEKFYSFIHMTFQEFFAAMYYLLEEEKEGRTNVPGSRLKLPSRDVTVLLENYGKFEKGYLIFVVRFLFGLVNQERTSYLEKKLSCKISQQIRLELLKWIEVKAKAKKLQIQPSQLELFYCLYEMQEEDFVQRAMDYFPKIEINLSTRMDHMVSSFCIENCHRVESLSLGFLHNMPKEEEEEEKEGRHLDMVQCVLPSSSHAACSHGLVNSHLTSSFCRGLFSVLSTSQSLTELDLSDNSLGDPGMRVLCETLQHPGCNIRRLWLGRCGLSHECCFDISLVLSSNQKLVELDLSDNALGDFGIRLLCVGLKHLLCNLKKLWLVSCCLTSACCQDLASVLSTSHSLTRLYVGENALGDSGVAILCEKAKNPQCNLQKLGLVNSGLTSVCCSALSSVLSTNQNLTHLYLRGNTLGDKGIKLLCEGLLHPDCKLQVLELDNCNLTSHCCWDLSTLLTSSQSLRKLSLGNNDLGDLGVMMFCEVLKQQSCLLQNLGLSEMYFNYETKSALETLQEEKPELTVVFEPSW

## O=C(N=S1(=O)NC(=O)c2ccccc21)Nc1c2c(cc3c1CCC3)CCC2 (racemic) [Example 1]
NLRP3 inflammasome [1]
  IC50: 1 to 10 µM
NLRP3 inflammasome [2]
  IC50: < 1 µM
NLRP3 inflammasome [3]
  IC50: < 1 µM
NLRP3 inflammasome [4]
  IC50: 1 to 10 µM

## COc1ccc2c(c1)S(=O)(NC(=O)Nc1c3c(cc4c1CCC4)CCC3)=NC2=O (single isomer, unassigned) [Example 48]
NLRP3 inflammasome [1]
  IC50: < 1 µM
NLRP3 inflammasome [2]
  IC50: < 1 µM
NLRP3 inflammasome [3]
  IC50: < 1 µM
NLRP3 inflammasome [4]
  IC50: < 1 µM

## CC(C)(O)c1ccc2c(c1)S(=O)(=NC(=O)Nc1c3c(cc4c1CCC4)CCC3)NC2=O (single isomer, unassigned) [Example 41]
NLRP3 inflammasome [1]
  IC50: < 1 µM
NLRP3 inflammasome [2]
  IC50: < 1 µM
NLRP3 inflammasome [3]
  IC50: < 1 µM
NLRP3 inflammasome [4]
  IC50: < 1 µM

## O=C(N=S1(=O)NC(=O)c2ccc(Br)cc21)Nc1c2c(cc3c1CCC3)CCC2 (single isomer, unassigned) [Example 60]
NLRP3 inflammasome [1]
  IC50: 1 to 10 µM
NLRP3 inflammasome [2]
  IC50: < 1 µM
NLRP3 inflammasome [3]
  IC50: < 1 µM
NLRP3 inflammasome [4]
  IC50: < 1 µM

## O=C(Nc1c2c(cc3c1CCC3)CCC2)NS1(=O)=NC(=O)c2ccccc2C1 (stereo not drawn) [Example 3]
NLRP3 inflammasome [1]
  IC50: 1 to 10 µM
NLRP3 inflammasome [2]
  IC50: < 1 µM
NLRP3 inflammasome [3]
  IC50: < 1 µM
NLRP3 inflammasome [4]
  IC50: 1 to 10 µM

## O=C(Nc1c2c(cc3c1CCC3)CCC2)NS1(=O)=NC(=O)c2ccccc2C1 (single isomer, unassigned) [Example 34]
NLRP3 inflammasome [1]
  IC50: 1 to 10 µM
NLRP3 inflammasome [2]
  IC50: < 1 µM
NLRP3 inflammasome [3]
  IC50: < 1 µM
NLRP3 inflammasome [4]
  IC50: < 1 µM

## COc1cc(-c2cccc(C(C)C)c2NC(=O)NS2(=O)=NC(=O)c3ccc(C(C)(C)O)cc32)ccn1 (stereo not drawn) [Example 31]
NLRP3 inflammasome [1]
  IC50: 1 to 10 µM
NLRP3 inflammasome [2]
  IC50: < 1 µM
NLRP3 inflammasome [3]
  IC50: 1 to 10 µM
NLRP3 inflammasome [4]
  IC50: < 1 µM

## O=C(Nc1c2c(cc3c1CCC3)CCC2)NS1(=O)=NC(=O)c2sccc21 (single isomer, unassigned) [Example 36]
NLRP3 inflammasome [1]
  IC50: < 1 µM
NLRP3 inflammasome [2]
  IC50: < 1 µM
NLRP3 inflammasome [3]
  IC50: < 1 µM
NLRP3 inflammasome [4]
  IC50: < 1 µM

## O=C(Nc1c2c(cc3c1CCC3)CCC2)NS1(=O)=NC(=O)c2c(Cl)cccc21 (stereo not drawn) [Example 11]
NLRP3 inflammasome [1]
  IC50: 1 to 10 µM
NLRP3 inflammasome [2]
  IC50: < 1 µM
NLRP3 inflammasome [3]
  IC50: 1 to 10 µM
NLRP3 inflammasome [4]
  IC50: 1 to 10 µM

## O=C(Nc1c2c(c(F)c3c1CCC3)CCC2)NS1(=O)=NC(=O)c2ccccc21 (single isomer, unassigned) [Example 37]
NLRP3 inflammasome [1]
  IC50: 1 to 10 µM
NLRP3 inflammasome [2]
  IC50: < 1 µM
NLRP3 inflammasome [3]
  IC50: < 1 µM
NLRP3 inflammasome [4]
  IC50: < 1 µM

## CC(C)(O)c1ccc2c(c1)S(=O)(=NC(=O)Nc1c3c(cc4c1CCC4)CCC3)NC2=O (stereo not drawn) [Example 30, 1-(1,2,3,5,6,7-hexahydro-s-indacen-4-yl)-3-(6-(2-hydroxypropan-2-yl)-1-oxido-3-oxo-3H-1,4-benzo[d]isothiazol-1-yl)urea]
NLRP3 inflammasome [1]
  IC50: < 1 µM
NLRP3 inflammasome [2]
  IC50: < 1 µM
NLRP3 inflammasome [3]
  IC50: < 1 µM
NLRP3 inflammasome [4]
  IC50: < 1 µM

## Cc1cccc2c1C(=O)N=S2(=O)NC(=O)Nc1c2c(cc3c1CCC3)CCC2 (stereo not drawn) [Example 14]
NLRP3 inflammasome [1]
  IC50: 1 to 10 µM
NLRP3 inflammasome [2]
  IC50: < 1 µM
NLRP3 inflammasome [3]
  IC50: 1 to 10 µM
NLRP3 inflammasome [4]
  IC50: 1 to 10 µM

## O=C(Nc1c2c(c(F)c3c1CCC3)CCC2)NS1(=O)=NC(=O)c2ccccc21 (stereo not drawn) [Example 5]
NLRP3 inflammasome [1]
  IC50: 1 to 10 µM
NLRP3 inflammasome [2]
  IC50: < 1 µM
NLRP3 inflammasome [3]
  IC50: < 1 µM
NLRP3 inflammasome [4]
  IC50: 1 to 10 µM

## O=C(Nc1c2c(cc3c1CCC3)CCC2)NS1(=O)=NC(=O)c2sccc21 (stereo not drawn) [Example 4]
NLRP3 inflammasome [1]
  IC50: 1 to 10 µM
NLRP3 inflammasome [2]
  IC50: < 1 µM
NLRP3 inflammasome [3]
  IC50: < 1 µM
NLRP3 inflammasome [4]
  IC50: < 1 µM

## O=C(Nc1c2c(cc3c1CCC3)CCC2)NS1(=O)=NC(=O)c2c(Cl)cccc21 (single isomer, unassigned) [Example 42]
NLRP3 inflammasome [1]
  IC50: 1 to 10 µM
NLRP3 inflammasome [2]
  IC50: < 1 µM
NLRP3 inflammasome [3]
  IC50: < 1 µM
NLRP3 inflammasome [4]
  IC50: 1 to 10 µM

## O=C(N=S1(=O)NC(=O)c2ccccc21)Nc1c2c(cc3c1CCC3)CCC2 (single isomer, unassigned) [Example 1b]
NLRP3 inflammasome [1]
  IC50: 1 to 10 µM
NLRP3 inflammasome [2]
  IC50: < 1 µM
NLRP3 inflammasome [3]
  IC50: < 1 µM
NLRP3 inflammasome [4]
  IC50: 1 to 10 µM

## O=C(Nc1c2c(cc3c1CCC3)CCC2)NS1(=O)=NC(=O)c2cc(F)ccc21 (single isomer, unassigned) [Example 62]
NLRP3 inflammasome [1]
  IC50: 1 to 10 µM
NLRP3 inflammasome [2]
  IC50: < 1 µM
NLRP3 inflammasome [3]
  IC50: < 1 µM
NLRP3 inflammasome [4]
  IC50: < 1 µM

## O=C(Nc1c2c(c(F)c3c1CCC3)CCC2)NS1(=O)=NC(=O)c2sccc21 (single isomer, unassigned) [Example 55]
NLRP3 inflammasome [1]
  IC50: < 1 µM
NLRP3 inflammasome [2]
  IC50: < 1 µM
NLRP3 inflammasome [3]
  IC50: < 1 µM
NLRP3 inflammasome [4]
  IC50: < 1 µM
